Converted amounts (≈) assume the structure as drawn. The source made the active and inactive calls. No cut-off for these calls is given here.
Columns and labels:
Micrococcus luteus = experiment: Antimicrobial activity against Micrococcus flavus ATCC 10240 by microdilution method; type: functional
Staphylococcus aureus = experiment: Antimicrobial activity against Staphylococcus aureus ATCC 6538 by microdilution method; type: functional
Proteus mirabilis = experiment: Antimicrobial activity against Proteus mirabilis isolates by microdilution method; type: functional, organism-based
Pseudomonas aeruginosa = experiment: Antimicrobial activity against Pseudomonas aeruginosa ATCC 27853 by microdilution method; type: functional, organism-based
Escherichia coli = experiment: Antimicrobial activity against Escherichia coli ATCC 35218 by microdilution method; type: functional, organism-based
NCI-H460 [1] = experiment: Cytotoxicity against human H460 cells at <40 uM after 48 hrs by SRB assay; type: functional, cell-based
SF-268 [2] = experiment: Cytotoxicity against human SF268 cells at <40 uM after 48 hrs by SRB assay; type: functional, cell-based
OVCAR-3 [3] = experiment: Cytotoxicity against human OVCAR-3 cells at <40 uM after 48 hrs by SRB assay; type: functional, cell-based
OVCAR-3 [4] = experiment: Cytotoxicity against human OVCAR-3 cells after 48 hrs by SRB assay; type: functional; conditions: OVCAR-3, 48 h
DLD-1 [5] = experiment: Cytotoxicity against human DLD1 cells at <40 uM after 48 hrs by SRB assay; type: functional, cell-based
SF-268 [6] = experiment: Cytotoxicity against human SF268 cells after 48 hrs by SRB assay; type: functional; conditions: SF-268, 48 h
MCF7 [7] = experiment: Cytotoxicity against human MCF7 cells at <40 uM after 48 hrs by SRB assay; type: functional, cell-based
Bacillus cereus = experiment: Antimicrobial activity against Bacillus cereus isolates by microdilution method; type: functional
MCF7 [8] = experiment: Cytotoxicity against human MCF7 cells after 48 hrs by SRB assay; type: functional; conditions: MCF7, 48 h
NCI-H460 [9] = experiment: Cytotoxicity against human H460 cells after 48 hrs by SRB assay; type: functional; conditions: NCI-H460, 48 h
DLD-1 [10] = experiment: Cytotoxicity against human DLD1 cells after 48 hrs by SRB assay; type: functional; conditions: DLD-1, 48 h
[11] = read-out: LC50 (the source's name)

For `C=C1C(=O)O[C@H]2[C@H]1[C@@H](OC(=O)C(=C)[C@@H](O)COC(C)=O)C[C@]1(C)[C@@H]2[C@@H](C=O)CC[C@H]1O`, the MIC (Micrococcus luteus) was 5 µg/mL (≈ 11.5 µM), the MIC (Staphylococcus aureus) was 5 µg/mL (≈ 11.5 µM) and the Activity (Proteus mirabilis) was “inactive”. The Activity (Pseudomonas aeruginosa) was “inactive” and the Activity (Escherichia coli) was “inactive”.
For `C=C[C@]1(C)C[C@H](OC(=O)C(=C)[C@@H](O)CO)[C@@H](C(=C)C(=O)OC)[C@H](O)C1C(=C)CO` (stereo partly drawn), the Activity (NCI-H460 [1]) was “inactive”, the Activity (SF-268 [2]) was “inactive” and the Activity (OVCAR-3 [3]) was “inactive”. For the same molecule, the MIC (Staphylococcus aureus) was 5 µg/mL (≈ 12.2 µM), the Activity (Proteus mirabilis) was “inactive” and the GI50 (OVCAR-3 [4]) was 31.9 µM. For the same molecule, the Activity (DLD-1 [5]) was “inactive”, the Activity (Pseudomonas aeruginosa) was “inactive” and the GI50 (SF-268 [6]) was 37.6 µM. For the same molecule, the Activity (MCF7 [7]) was “inactive” and the Activity (Escherichia coli) was “inactive”.
In the case of `C=C1C(=O)O[C@@H]2/C=C(\CO)CC/C=C(\C)C[C@H](OC(=O)C(=C)[C@@H](O)COC(C)=O)[C@@H]12`, the MIC (Micrococcus luteus) is reported as 5 µg/mL (≈ 11.9 µM), the MIC (Staphylococcus aureus) is reported as 5 µg/mL (≈ 11.9 µM) and the Activity (Proteus mirabilis) is reported as “inactive”. The MIC (Bacillus cereus) was 1.25 µg/mL (≈ 2.97 µM), the Activity (Pseudomonas aeruginosa) was “inactive” and the Activity (Escherichia coli) was “inactive”.
With `C=C[C@]1(C)C[C@H](OC(=O)C(=C)[C@@H](O)CO)[C@H]2C(=C)C(=O)O[C@@H]2[C@H]1C(=C)CO` the MIC (Micrococcus luteus) was 5 µg/mL (≈ 13.2 µM), the Activity (SF-268 [2]) was “inactive” and the MIC (Staphylococcus aureus) was 5 µg/mL (≈ 13.2 µM). The Activity (Proteus mirabilis) was “inactive”, the MIC (Bacillus cereus) was 1.25 µg/mL (≈ 3.3 µM) and the Activity (Pseudomonas aeruginosa) was “inactive”. For the same molecule, the GI50 (SF-268 [6]) was 29.3 µM, the Activity (MCF7 [7]) was “inactive” and the Activity (Escherichia coli) was “inactive”.
For `C=C1C(=O)O[C@@H]2[C@H]1[C@@H](OC(=O)/C(=C/COC(C)=O)CO)C[C@]1(C)[C@@H]2[C@@H](C=O)CC[C@H]1O`, the MIC (Micrococcus luteus) was 0.437 µg/mL (≈ 1 µM), the MIC (Staphylococcus aureus) was 3.5 µg/mL (≈ 8.02 µM) and the Activity (Proteus mirabilis) was “inactive”. The Activity (Pseudomonas aeruginosa) was “inactive” and the Activity (Escherichia coli) was “inactive”.
For `C=C[C@]1(C)C[C@H](OC(=O)C(=C)[C@@H](O)CO)[C@H]2C(=C)C(=O)O[C@@H]2[C@H]1C(=C)C=O`, the MIC (Micrococcus luteus) was 0.625 µg/mL (≈ 1.66 µM), the Activity (NCI-H460 [1]) was “inactive” and the GI50 (MCF7 [8]) was 10 µM. The Activity (SF-268 [2]) was “inactive”, the Activity (OVCAR-3 [3]) was “inactive” and the MIC (Staphylococcus aureus) was 5 µg/mL (≈ 13.3 µM). The Activity (Proteus mirabilis) was “inactive”, the MIC (Bacillus cereus) was 1.25 µg/mL (≈ 3.32 µM) and the GI50 (OVCAR-3 [4]) was 4.7 µM. The Activity (DLD-1 [5]) was “inactive”, the GI50 (NCI-H460 [9]) was 37 µM and the Activity (Pseudomonas aeruginosa) was “inactive”. For the same molecule, the GI50 (SF-268 [6]) was 7.7 µM, the TGI (SF-268 [6]) was 38 µM and the Activity (MCF7 [7]) was “inactive”. For the same molecule, the Activity (Escherichia coli) was “inactive”.
For `CC[C@]1(O)C[C@@H]2CN(CCc3c([nH]c4ccccc34)[C@@](C(=O)OC)(c3cc4c(cc3OC)N(C)[C@H]3[C@@](O)(C(=O)OC)[C@H](OC(C)=O)[C@]5(CC)C=CCN6CC[C@]43[C@@H]65)C2)C1` [VINBLASTINE], the GI50 (MCF7 [8]) was less than 0.01 µM, the TGI (MCF7 [8]) was 1.6 µM and the GI50 (DLD-1 [10]) was less than 0.01 µM. The TGI (DLD-1 [10]) was 2.44 µM, the CC50 (DLD-1 [10]; [11]) was 2.48 µM and the GI50 (OVCAR-3 [4]) was less than 0.01 µM. It also gave a TGI (OVCAR-3 [4]) of less than 0.01 µM, a CC50 (OVCAR-3 [4]; [11]) of 0.92 µM and a GI50 (NCI-H460 [9]) of less than 0.01 µM. It also gave a TGI (NCI-H460 [9]) of 0.35 µM and a GI50 (SF-268 [6]) of less than 0.01 µM.
For `C=C1C(=O)O[C@@H]2/C=C(\CO)CC/C=C(\C)C[C@H](OC(=O)/C(=C/COC(C)=O)CO)[C@@H]12`, the MIC (Micrococcus luteus) was 5 µg/mL (≈ 11.9 µM), the MIC (Staphylococcus aureus) was 5 µg/mL (≈ 11.9 µM) and the Activity (Proteus mirabilis) was “inactive”. For the same molecule, the MIC (Bacillus cereus) was 1.25 µg/mL (≈ 2.97 µM), the Activity (Pseudomonas aeruginosa) was “inactive” and the Activity (Escherichia coli) was “inactive”.
For `C=C1C(=O)O[C@H]2[C@H]1[C@@H](OC(=O)C(=C)[C@@H](O)CO)C[C@]1(C)[C@@H]2[C@@H](C=O)CC[C@H]1O` [MALACITANOLIDE], the MIC (Micrococcus luteus) was 5 µg/mL (≈ 12.7 µM), the MIC (Staphylococcus aureus) was 5 µg/mL (≈ 12.7 µM) and the Activity (Proteus mirabilis) was “inactive”. For the same molecule, the Activity (Pseudomonas aeruginosa) was “inactive” and the Activity (Escherichia coli) was “inactive”.
With `C=C1C(=O)O[C@H]2[C@H]1[C@@H](OC(=O)C(=C)[C@@H](O)CO)C[C@]1(C)[C@@H]2[C@H](C=O)CC[C@H]1O` the MIC (Micrococcus luteus) was 0.625 µg/mL (≈ 1.58 µM), the Activity (NCI-H460 [1]) was “inactive” and the GI50 (MCF7 [8]) was 31.7 µM. The Activity (SF-268 [2]) was “inactive”, the Activity (OVCAR-3 [3]) was “inactive” and the MIC (Staphylococcus aureus) was 5 µg/mL (≈ 12.7 µM). For the same molecule, the Activity (Proteus mirabilis) was “inactive”, the MIC (Bacillus cereus) was 5 µg/mL (≈ 12.7 µM) and the GI50 (OVCAR-3 [4]) was 36.4 µM. The Activity (DLD-1 [5]) was “inactive”, the GI50 (NCI-H460 [9]) was 32.4 µM and the Activity (Pseudomonas aeruginosa) was “inactive”. For the same molecule, the Activity (MCF7 [7]) was “inactive” and the Activity (Escherichia coli) was “inactive”.
For `C=C1C(=O)O[C@@H]2/C=C(\CO)CC/C=C(\C)C[C@H](OC(=O)C(=C)[C@H](O)CO)[C@@H]12` [CNICIN], the MIC (Micrococcus luteus) was 5 µg/mL (≈ 13.2 µM), the Activity (NCI-H460 [1]) was “inactive” and the GI50 (MCF7 [8]) was 37.8 µM. For the same molecule, the Activity (SF-268 [2]) was “inactive”, the Activity (OVCAR-3 [3]) was “inactive” and the Activity (Proteus mirabilis) was “inactive”. For the same molecule, the MIC (Bacillus cereus) was 1.25 µg/mL (≈ 3.3 µM), the GI50 (OVCAR-3 [4]) was 37.4 µM and the Activity (DLD-1 [5]) was “inactive”. For the same molecule, the Activity (Pseudomonas aeruginosa) was “inactive”, the Activity (MCF7 [7]) was “inactive” and the Activity (Escherichia coli) was “inactive”.
Molecule `CN[C@@H]1[C@H](O[C@H]2[C@H](O[C@H]3[C@H](O)[C@@H](O)[C@H](N=C(N)N)[C@@H](O)[C@@H]3N=C(N)N)O[C@@H](C)[C@]2(O)C=O)O[C@@H](CO)[C@H](O)[C@H]1O` [STREPTOMYCIN] has an MIC (Micrococcus luteus) of 0.1 µg/mL (≈ 0.172 µM), an MIC (Staphylococcus aureus) of 5 µg/mL (≈ 8.6 µM) and an MIC (Bacillus cereus) of 0.1 µg/mL (≈ 0.172 µM).
